Article PMC11200585, “Prospects for Prostate Cancer Chemotherapy: Cytotoxic Evaluation and Mechanistic Insights of Quinolinequinones with ADME/PK Profile” (Biomedicines, 2024)

Key:
MALME-3M = assay: NCI-60 one-dose screen (melanoma); assay type: cell-based, human; conditions: 10 µM single dose, 48 h
NCI-H322M = assay: NCI-60 five-dose assay (non-small cell lung cancer); assay type: cell-based, human; conditions: 48 h, SRB; for GI50 / CC50: Homo sapiens; for CC50: read-out: LC50 (the source's name)
786-0 = assay: NCI-60 five-dose assay (renal cancer); assay type: cell-based, human; conditions: 48 h, SRB; for GI50 / LC50: Homo sapiens
SN12C = assay: NCI-60 five-dose assay (renal cancer); assay type: cell-based, human; conditions: 48 h, SRB; for GI50 / LC50 (concentration killing 50% of starting cells): Homo sapiens
DU-145 cells = assay: MTT assay; assay type: cell-based; conditions: Homo sapiens, 24 h, mean ± SEM
Protocol: (§1) For the MTT assay, DU-145, MDA-MB-231, HCT-116, and HUVEC cells (American Type Culture Collection) were seeded at a concentration of 1 × 10^4 cells per well in 96-well plates and allowed to incubate overnight, ensuring proper adherence. Subsequently, a series of concentrations for both AQQ1 and AQQ2 (ranging from 1 to 100 µM) were added to the culture medium with a final concentration of 1% DMSO, and cells were subjected to an additional 24 h incubation period. The control group only received 1% DMSO (Biomatik, Cambridge, ON, Canada). To establish a baseline for comparison, DOXO (Saba, İstanbul, Turkey), a known chemotherapeutic agent, was administered at equivalent concentrations. Following the incubation period, MTT (3-(4,5-dimethylthiazol-2-yl)-2,5-diphenyltetrazolium bromide) (Biomatik, Canada) assay was carried out to assess cell viability. Finally, the absorbance was quantified at 590 nm using a BioTek Epoc plate reader (Biotek, Winooski, VT, USA). The derived data were analysed using GraphPad Prism 8 software to calculate the inhibitory concentration 50 (IC50) values of the test compounds.

HCT-116 cells = assay: MTT assay; assay type: cell-based; conditions: Homo sapiens, 24 h, mean ± SEM
Protocol: as §1

[1] = test system: Human Umbilical Vein Endothelial Cells (HUVEC); assay: MTT assay; assay type: cell-based; conditions: 24 h, mean ± SEM
Protocol: as §1

MDA-MB-231 cells = assay: MTT assay; assay type: cell-based; conditions: Homo sapiens, 24 h, mean ± SEM
Protocol: as §1

[2] = Log D (experimental, n-octanol); assay type: physicochemical; conditions: n-octanol (aqueous phase not stated)
[3] = In vitro metabolic stability; assay type: in vitro ADME, rat (Sprague-Dawley); conditions: Rat liver microsomes; for % Metabolism in 30 min: 0.5 µM, 0.5 mg/mL protein; for half-life at 0.5 µM / microsomal CLint at 0.5 µM: male, Sprague-Dawley, pH 7.4
Protocol: (§2) S2. ADME and PK Profiling
(§3) S2.1. In vitro Metabolic Stability Study […]
(§4) metabolic stability of AQQ1 and AQQ2. A final protein (liver microsomal) concentration of 0.5 mg/mL and final test substance (AQQ1 and AQQ2) concentration of 0.5 µM were used for the study. To the respective microsomes at a volume of 12.5 µL in the well, 2.5 µL of test substance ([…] in acetonitrile: dimethyl sulfoxide, 96:4) in the presence and absence of NADPH (50 µL, 10 mM) were added and the final volume made up to 500 µL with sodium phosphate buffer (50 mM, pH 7.4). The one without NADPH served as control. Sampling (50 µL) were done at the following time points: 0, 5, 10, 15, and 30 min for sample and at 0 and 30 min for control.
(§5) Acetonitrile (150 µL) was used as quenching solvent, internal standard (Rolipram) was added, vortexed/centrifuged and the aliquot from the supernatant was analyzed using LC-MS/MS. All the experiments were performed in duplicate.

[4] = In vitro metabolic stability; assay type: in vitro ADME, dog (Beagle); conditions: Dog liver microsomes; for % Metabolism in 30 min: 0.5 µM, 0.5 mg/mL protein; for half-life at 0.5 µM / microsomal CLint at 0.5 µM: male, Beagle, pH 7.4
Protocol: as §2, §3, §4, §5

COc1ccccc1NC1=C(Cl)C(=O)c2nc(C)ccc2C1=O [AQQ1]
GP (growth percentage) (MALME-3M): −55.92%
TGI (NCI-H322M): 7.69 µM
GI50 (NCI-H322M): 2.5 µM
CC50 (NCI-H322M): 27.6 µM
TGI (786-0): 3.61 µM
GI50 (786-0): 1.91 µM
LC50 (786-0): 6.82 µM
TGI (SN12C): 3.29 µM
GI50 (SN12C): 1.7 µM
LC50 (concentration killing 50% of starting cells) (SN12C): 6.36 µM
IC50 (DU-145 cells): 4.18 ± 0.73 µM
IC50 (HCT-116 cells): 5.83 ± 0.76 µM
IC50 [1]: 5.39 ± 0.73 µM
IC50 (MDA-MB-231 cells): 8.27 ± 0.91 µM
logD [2]: 2.37
% Metabolism in 30 min [3]: 100%
half-life at 0.5 µM [3]: 2 min
microsomal CLint at 0.5 µM [3]: 656 µL/min/mg
% Metabolism in 30 min [4]: 41.5%
half-life at 0.5 µM [4]: 31 min
microsomal CLint at 0.5 µM [4]: 45 µL/min/mg

CCOc1ccccc1NC1=C(Cl)C(=O)c2nc(C)ccc2C1=O [AQQ2]
GP (growth percentage) (MALME-3M): −71.39%
TGI (NCI-H322M): 7.91 µM
GI50 (NCI-H322M): 2.22 µM
CC50 (NCI-H322M): 29.7 µM
TGI (786-0): 3.25 µM
GI50 (786-0): 1.8 µM
LC50 (786-0): 5.86 µM
TGI (SN12C): 3.04 µM
GI50 (SN12C): 1.59 µM
LC50 (concentration killing 50% of starting cells) (SN12C): 5.8 µM
IC50 (DU-145 cells): 4.17 ± 0.8 µM
IC50 (HCT-116 cells): 9.18 ± 0.96 µM
IC50 [1]: 6.39 ± 0.8 µM
IC50 (MDA-MB-231 cells): 13.3 ± 1.12 µM
logD [2]: 2.35
% Metabolism in 30 min [3]: 100%
half-life at 0.5 µM [3]: 3 min
microsomal CLint at 0.5 µM [3]: 501 µL/min/mg
% Metabolism in 30 min [4]: 79.5%
half-life at 0.5 µM [4]: 17 min
microsomal CLint at 0.5 µM [4]: 84 µL/min/mg

CCOc1ccc(NC2=C(Cl)C(=O)c3nc(C)ccc3C2=O)cc1 [AQQ3]
GP (growth percentage) (MALME-3M): −90.58%
TGI (NCI-H322M): 3.74 µM
GI50 (NCI-H322M): 1.68 µM
CC50 (NCI-H322M): 8.29 µM
TGI (786-0): 3.19 µM
GI50 (786-0): 1.72 µM
LC50 (786-0): 5.89 µM
TGI (SN12C): 2.99 µM
GI50 (SN12C): 1.58 µM
LC50 (concentration killing 50% of starting cells) (SN12C): 5.66 µM

COc1cc(NC2=C(Cl)C(=O)c3nc(C)ccc3C2=O)cc(OC)c1 [AQQ5]
GP (growth percentage) (MALME-3M): −89.37%
TGI (NCI-H322M): 12.8 µM
GI50 (NCI-H322M): 3.42 µM
CC50 (NCI-H322M): 35.8 µM
TGI (786-0): 2.88 µM
GI50 (786-0): 1.52 µM
LC50 (786-0): 5.44 µM
TGI (SN12C): 3.25 µM
GI50 (SN12C): 1.71 µM
LC50 (concentration killing 50% of starting cells) (SN12C): 6.19 µM
